US6025390A, “Heteroaromatic pentadienoic acid derivatives useful as inhibitors of bone resorption” (SmithKline Beecham SpA, priority 1996, dated 2000)

Assays:
osteoclast proton pump = conditions: avian osteoclast membrane vesicles, ATP-driven acidification; cited from earlier work
osteoclast cultures = conditions: cited from earlier work
[1] = biological target: Bafilomycin-Sensitive ATPase in Chicken Osteoclasts; assay: Inhibition of bafilomycin-sensitive ATPase activity in purified membrane vesicles (Pi release, malachite green); type: biochemical; conditions: chicken osteoclast membranes
Experimental: Preparation of crude bone microsomes from calcium-starved egg-laying hens.
Vesicles were prepared from medullar bone obtained from tibiae and femurs of egg-laying hens which were calcium-starved for at least 15 days. Briefly, bone fragments were scraped with a 24 scalpel blade, suspended in 40 ml of isolation medium (0.2M sucrose, 50 mM KCl, 10 mM Hepes, 1 mM EGTA, 2 mM dithiotheitrol, pH 7.4) and filtered through a 100 μm pore size nylon mesh. The whole procedure was performed at 4° C. After homogenisation in a potter (20 strokes) in 40 ml of isolation medium an initial centrifugation (6,500×gmax ×20 min) was performed to remove mitochondria and lysosomes. The supernatant was centrifuged at 100,000×gmax for 1 hr and the pellet was collected in 1 ml of isolation medium, divided into 200 μl aliquots, immediately frozen in liquid nitrogen and stored at […]. The protein content was determined using a Biorad colourimetric kit according to Bradford [M. Bradford, Anal. Biochem., 72, 248 (1976)]. For the proton transport assay, 5-10 μl of membranes were used.
Purification of osteoclast membranes. 1 ml of crude microsomal vesicles prepared above were applied (about 0.2 ml per tube) on the top of a sucrose step-gradient consisting of 3.5 ml of 15%, 30% and 45% (w/w) sucrose in isolation medium and centrifuged at 280,000 gmax for 2 hours (SW 41 Ti rotor). After centrifugation the 30-45% sucrose interfaces were collected, diluted approx. 20-fold in isolation medium and pelletted at 100,000 gmax for 1 hour (SW 28 rotor). The pellet was then resuspended in 1 ml of isolation medium, aliquoted and frozen in liquid N2 and stored at -80° C. until used.
Inhibition of bafilomycin-sensitive ATPase activity was assessed in purified membrane vesicles by measuring the release of inorganic phosphate (Pi) during 30 min of incubation at 37° C. in a 96-well plate either in the presence or in the absence of bafilomycin A1. The reaction medium contained 1 mM ATP, 10 mM HEPES-Tris pH 8, 50 MM KCl, 5 uM valinomycin, 5 uM nigericin, 1 mM CDTA-Tris, 100 uM ammonium molybdate, 0.2M sucrose and membranes (20 ug protein/ml). The reaction was initiated by MgSO4 (8-arm pipette) and stopped, after 30 min, by addition of 4 volumes of the malachite green reagent (96-arm pipette) prepared according to Chan [Anal. Biochem. 157, 375 (1986)]. Absorbance at 650 nm was measured after 2 min using a microplate reader. Results are expressed as μmol (Pi)×mg protein^-1 ×hour^-1 and, for each experiment, represent the mean±sem of triplicates.

SMILES | inhibition of proton transport (osteoclast proton pump) | inhibition of bone resorption (osteoclast cultures) | IC50 [1] [µM]
CO/C1=C\C(C)=C\[C@@H](C)[C@@H](O)[C@@H](C)C/C(C)=C/C=C/[C@H](OC)[C@@H]([C@@H](C)[C@@H](O)[C@H](C)[C@@]2(O)C[C@@H](O)[C@H](C)[C@@H](C(C)C)O2)OC1=O [bafilomycin A1] | inhibited | able to inhibit bone resorption | –
CO/C(=C\C=C\c1cc2ccccc2s1)C(=O)NC1CC(C)(C)N(C)C(C)(C)C1 [Example 12, (2Z,4E)-5-(Benzothiophen-2-yl)-2-methoxy-N-[(1,2,2,6,6-pentamethyl)-piperidin-4-yl]-2,4-pentadienamide] | – | – | 10.6
CO/C(=C\C=C\c1cc2ccccc2o1)C(=O)NC1CC(C)(C)N(C)C(C)(C)C1 [Example 5, (2Z,4E)-5-(Benzofuran-2-yl)-2-methoxy-N[(1,2,2,6,6-pentamethyl)-piperidin-4-yl]-2,4-pentadienamide] | – | – | 11
CO/C(=C\C=C\c1cc2cc(Cl)ccc2o1)C(=O)NC1CC(C)(C)N(C)C(C)(C)C1 [Example 8] | – | – | 0.5
C[C@@H]1O[C@@H](O[C@H]2C[C@@H](O)[C@]3(CO)[C@H]4[C@H](O)C[C@]5(C)[C@@H](C6=CC(=O)OC6)CC[C@]5(O)[C@@H]4CC[C@]3(O)C2)[C@H](O)[C@H](O)[C@H]1O [ouabain] | not inhibited | – | –
Cc1nc2c(OCc3ccccc3)cccn2c1CC#N [SCH 28080] | not inhibited | – | –
COc1ccc2[nH]c([S+]([O-])Cc3ncc(C)c(OC)c3C)nc2c1 (stereo not drawn) [omeprazole] | not inhibited | – | –
[Na+].[Na+].[Na+].[O]=[V]([O-])([O-])[O-] [sodium orthovanadate] | not inhibited | – | –
CCN1C(=O)C=CC1=O [N-ethylmaleimide] | inhibited | – | –
CCN(CC)CCCNC(=O)/C(=C/C=C/c1cc2cc(Cl)ccc2o1)OC [Example 9, (2Z,4E)-5-(5-Chlorobenzofuran-2-yl)-N-(3-diethylaminopropyl)-2-methoxy-2,4-pentadienamide] | – | – | 10
CO/C(=C\C=C\c1cc2ccccc2o1)C(=O)NC1CC(C)(C)NC(C)(C)C1 [Example 3, (2Z,4E)-5-(Benzofuran-2-yl)-2-methoxy-N-((2,2,6,6-tetramethyl)-piperidin-4-yl)-2,4-pentadienamide] | – | – | 8.6
